Laboratory results from ChEMBL document CHEMBL3885881, “DrugMatrix”.

Species on record: Rattus norvegicus
Experiment: DrugMatrix - Regimen: Daily Repeat
Assay type: toxicity, organism-based, Sprague-Dawley
Design: regimen Daily Repeat, gender Male, age 6-8 weeks
Settings: in vivo, po, route oral GAVAGE, vehicle 100 % SALINE; for ABSOLUTE EOSINOPHIL / ABSOLUTE LYMPHOCYTE / ABSOLUTE MONOCYTE / ABSOLUTE SEGMENTED NEUTROPHIL / BASOPHIL / EOSINOPHIL / ERYTHROCYTE COUNT / HEMATOCRIT / HEMOGLOBIN / LEUKOCYTE COUNT / LYMPHOCYTE / MEAN CORPUSCULAR HEMOGLOBIN / MEAN CORPUSCULAR HEMOGLOBIN CONCENTRATION / MEAN CORPUSCULAR VOLUME / MONOCYTE / NEUTROPHIL / NUCLEATED RED BLOOD CELLS / PLATELET COUNT / ABSOLUTE BASOPHIL: tissue Blood; for ALANINE AMINOTRANSFERASE / ALBUMIN / ALKALINE PHOSPHATASE / ASPARTATE AMINOTRANSFERASE / BLOOD UREA NITROGEN / CARBON DIOXIDE / CHLORIDE / CHOLESTEROL / CREATINE PHOSPHOKINASE / CREATININE / GLUCOSE / LACTATE DEHYDROGENASE / LIPASE / PHOSPHORUS / POTASSIUM / SODIUM / TOTAL BILIRUBIN / TOTAL PROTEIN / URIC ACID: tissue Plasma
[1] = 29 mg/kg, 120 h, dose level Low, time 5 day
[2] = 200 mg/kg, 72 h, dose level High, time 3 day
[3] = 200 mg/kg, 120 h, dose level High, time 5 day

In the case of `Cc1ccnc2c1NC(=O)c1cccnc1N2C1CC1` [NEVIRAPINE], the “ABSOLUTE EOSINOPHIL” value [1] is reported as 0 CELLS/uL, the “ABSOLUTE LYMPHOCYTE” value [1] is reported as 5766.33 CELLS/uL and the “ABSOLUTE MONOCYTE” value [1] is reported as 26.67 CELLS/uL. The “ABSOLUTE SEGMENTED NEUTROPHIL” value [1] was 340.33 CELLS/uL, the BASOPHIL [1] was 0% and the EOSINOPHIL [1] was 0%. For the same compound, the “ERYTHROCYTE COUNT” value [1] was 5.58 x10E6/uL, the HEMATOCRIT [1] was 33.7% and the HEMOGLOBIN [1] was 13.2 G/DL. The “LEUKOCYTE COUNT” value [1] was 6.13 x10E3/uL, the LYMPHOCYTE [1] was 94.33% and the “MEAN CORPUSCULAR HEMOGLOBIN” value [1] was 23.7 pg. For the same compound, the “MEAN CORPUSCULAR HEMOGLOBIN CONCENTRATION” value [1] was 39.2 G/DL, the “MEAN CORPUSCULAR VOLUME” value [1] was 60.4 fL and the MONOCYTE [1] was 0.33%. The NEUTROPHIL [1] was 5.33%, the “NUCLEATED RED BLOOD CELLS” value [1] was 0 /100WBC and the “PLATELET COUNT” value [1] was 1219 x10E3/uL. The “ALANINE AMINOTRANSFERASE” value [1] was 55.67 u/L, the ALBUMIN [1] was 4.23 G/DL and the “ALKALINE PHOSPHATASE” value [1] was 280.33 u/L. The “ASPARTATE AMINOTRANSFERASE” value [1] was 82.33 u/L, the “BLOOD UREA NITROGEN” value [1] was 15.33 mg/dL and the “CARBON DIOXIDE” value [1] was 34.33 mmol/L. The CHLORIDE [1] was 98.67 MEQ/L, the CHOLESTEROL [1] was 74.33 mg/dL and the “CREATINE PHOSPHOKINASE” value [1] was 403.67 u/L. The CREATININE [1] was 0.39 mg/dL, the GLUCOSE [1] was 132.33 mg/dL and the “LACTATE DEHYDROGENASE” value [1] was 98.67 u/L. It also gave an LIPASE [1] of 11 u/L, a PHOSPHORUS [1] of 10.8 mg/dL and a POTASSIUM [1] of 6.38 MEQ/L. For the same compound, the SODIUM [1] was 144.43 MEQ/L, the “TOTAL BILIRUBIN” value [1] was 0.17 mg/dL and the “TOTAL PROTEIN” value [1] was 5.7 G/DL. For the same compound, the “URIC ACID” value [1] was 0.87 mg/dL, the “ABSOLUTE BASOPHIL” value [2] was 0 CELLS/uL and the “ABSOLUTE EOSINOPHIL” value [2] was 0 CELLS/uL. For the same compound, the “ABSOLUTE LYMPHOCYTE” value [2] was 4383.33 CELLS/uL, the “ABSOLUTE MONOCYTE” value [2] was 11.67 CELLS/uL and the “ABSOLUTE SEGMENTED NEUTROPHIL” value [2] was 905 CELLS/uL. For the same compound, the BASOPHIL [2] was 0%, the EOSINOPHIL [2] was 0% and the “ERYTHROCYTE COUNT” value [2] was 5.28 x10E6/uL. The HEMATOCRIT [2] was 32.53%, the HEMOGLOBIN [2] was 12.53 G/DL and the “LEUKOCYTE COUNT” value [2] was 5.3 x10E3/uL. For the same compound, the LYMPHOCYTE [2] was 83%, the “MEAN CORPUSCULAR HEMOGLOBIN” value [2] was 23.9 pg and the “MEAN CORPUSCULAR HEMOGLOBIN CONCENTRATION” value [2] was 38.7 G/DL. The “MEAN CORPUSCULAR VOLUME” value [2] was 61.8 fL, the MONOCYTE [2] was 0.33% and the NEUTROPHIL [2] was 16.67%. The “NUCLEATED RED BLOOD CELLS” value [2] was 0.67 /100WBC, the “PLATELET COUNT” value [2] was 1104 x10E3/uL and the “ALANINE AMINOTRANSFERASE” value [2] was 63 u/L. For the same compound, the ALBUMIN [2] was 4.4 G/DL, the “ALKALINE PHOSPHATASE” value [2] was 260.67 u/L and the “ASPARTATE AMINOTRANSFERASE” value [2] was 84.67 u/L. For the same compound, the “BLOOD UREA NITROGEN” value [2] was 16.33 mg/dL, the “CARBON DIOXIDE” value [2] was 27.67 mmol/L and the CHLORIDE [2] was 101.67 MEQ/L. The CHOLESTEROL [2] was 85.33 mg/dL, the “CREATINE PHOSPHOKINASE” value [2] was 227 u/L and the CREATININE [2] was 0.11 mg/dL. For the same compound, the GLUCOSE [2] was 145 mg/dL, the “LACTATE DEHYDROGENASE” value [2] was 139.67 u/L and the LIPASE [2] was 12.33 u/L. For the same compound, the PHOSPHORUS [2] was 10.8 mg/dL, the POTASSIUM [2] was 5.63 MEQ/L and the SODIUM [2] was 147 MEQ/L. The “TOTAL BILIRUBIN” value [2] was 0.13 mg/dL, the “TOTAL PROTEIN” value [2] was 5.9 G/DL and the “URIC ACID” value [2] was 1.03 mg/dL. The “ABSOLUTE BASOPHIL” value [3] was 0 CELLS/uL, the “ABSOLUTE EOSINOPHIL” value [3] was 0 CELLS/uL and the “ABSOLUTE LYMPHOCYTE” value [3] was 5735 CELLS/uL. For the same compound, the “ABSOLUTE MONOCYTE” value [3] was 88 CELLS/uL, the “ABSOLUTE SEGMENTED NEUTROPHIL” value [3] was 443.67 CELLS/uL and the BASOPHIL [3] was 0%. For the same compound, the EOSINOPHIL [3] was 0%, the “ERYTHROCYTE COUNT” value [3] was 5.22 x10E6/uL and the HEMATOCRIT [3] was 33.87%. The HEMOGLOBIN [3] was 13.47 G/DL, the “LEUKOCYTE COUNT” value [3] was 6.27 x10E3/uL and the LYMPHOCYTE [3] was 91.67%. The “MEAN CORPUSCULAR HEMOGLOBIN” value [3] was 25.83 pg, the “MEAN CORPUSCULAR HEMOGLOBIN CONCENTRATION” value [3] was 39.8 G/DL and the “MEAN CORPUSCULAR VOLUME” value [3] was 64.77 fL. For the same compound, the MONOCYTE [3] was 1.33%, the NEUTROPHIL [3] was 7% and the “NUCLEATED RED BLOOD CELLS” value [3] was 0.67 /100WBC. For the same compound, the “PLATELET COUNT” value [3] was 1370.67 x10E3/uL, the “ALANINE AMINOTRANSFERASE” value [3] was 55.67 u/L and the ALBUMIN [3] was 4.03 G/DL. For the same compound, the “ALKALINE PHOSPHATASE” value [3] was 286 u/L, the “ASPARTATE AMINOTRANSFERASE” value [3] was 87 u/L and the “BLOOD UREA NITROGEN” value [3] was 13 mg/dL. The “CARBON DIOXIDE” value [3] was 33.67 mmol/L, the CHLORIDE [3] was 99 MEQ/L and the CHOLESTEROL [3] was 89.33 mg/dL. For the same compound, the “CREATINE PHOSPHOKINASE” value [3] was 578.67 u/L, the CREATININE [3] was 0.38 mg/dL and the GLUCOSE [3] was 136 mg/dL. For the same compound, the “LACTATE DEHYDROGENASE” value [3] was 142 u/L, the LIPASE [3] was 10.33 u/L and the PHOSPHORUS [3] was 10.57 mg/dL. The POTASSIUM [3] was 6.07 MEQ/L, the SODIUM [3] was 146.23 MEQ/L and the “TOTAL BILIRUBIN” value [3] was 0.13 mg/dL. The “TOTAL PROTEIN” value [3] was 6.13 G/DL and the “URIC ACID” value [3] was 0.63 mg/dL.
